The source of these data is patent publication US8993565B2, “(6-oxo-1,6-dihydropyrimidin-2-yl)amide derivatives, preparation thereof and pharmaceutical use thereof as AKT(PKB) phosphorylation inhibitors” (Sanofi, priority 2009, dated 2015).

The experiment relates to AKT protein phosphorylated on serine 473 (P-AKT-S473). In words: Study of pAKT expression in PC3 human prostate carcinoma cells measured by the MSD Multi-spot Biomarker Detection technique (Test B). The experiment is classed as cell-based. The settings on record: PC-3, inhibition of AKT phosphorylation (P-AKT-S473), MSD sandwich immunoassay, 1 to 2 h incubation, absolute IC50, mean of 2 experiments. On the procedure:
The inhibitory activity of the molecules on AKT phosphorylation is measured either by western blotting using the technique described below, or by the MSD Multi-spot Biomarker detection technique from Meso Scale Discovery also described below.
Study of pAKT Expression in PC3 Human Prostate Carcinoma Cells Measured by the MSD Multi-Spot Biomarker Detection Technique from Meso Scale Discovery (Test B):
The primary antibody specific for P-AKT-S473 (Kit #K151CAD) is coated on to an electrode in each well of the 96-well plates of the MSD, kit: after the addition of a protein lysate to each well, the signal is visualised by adding a secondary detection antibody labelled with an electrochemoluminescent compound. The procedure followed is that described in the kit.
On day 2, the cells are incubated in the presence or absence of the test products for 1 to 2 h at 37° C. in the presence of 5% of CO2. The molecules, diluted in dimethyl sulphoxide (DMSO Sigma #D2650), are added from a 20-times concentrated stock solution, the final percentage of DMSO being 0.1%. The molecules are tested either at a single concentration of less than or equal to 10 μM, or at increasing concentrations in a range that can extend from less than 1 nM to 10 μM.
After this incubation, the cells are lysed for the preparation of the proteins. […] At this stage, the plates containing the lysates can be stored at −20° C. or at −80° C.
The wells of the 96-well plates of the MSD kit are saturated for 1 h at ambient temperature with the blocking solution of the MSD kit. Four washes are carried out with 150 μl of Tris Wash Buffer of the MSD kit. The lysates previously prepared are transferred into the 96-well multi-spot plates of the MSD kit and incubated for 1 h at ambient temperature, with shaking. Four washes are carried out with 150 μl of Tris Wash Buffer of the MSD kit. 25 μl of the MSD sulfo-tag detection antibody solution are added to the wells and incubated for 1 h at ambient temperature, with shaking. Four washes are carried out with 150 μl of Tris Wash Buffer of the MSD kit. 150 μl of Read Buffer of the MSD kit are added to the wells and the plates are read immediately on the S12400 instrument from Meso Scale Discovery.
The instrument measures a signal for each well. Wells without cells and containing the lysis buffer serve to determine the background noise that will be subtracted from all the measurements (min). The wells containing cells in the absence of product and in the presence of 0.1% DMSO are considered to be the 100% signal (max). The percentage inhibition is calculated for each concentration of test product according to the following formula: (1-((test-min)(max-min)))×100.
2 independent experiments make it possible to calculate the mean of the IC50 values.
The compound `CN(C)c1cccc(NC(=O)Cc2nc(N3CCOCC3)cc(=O)[nH]2)c1` [Example 4, N-[3-(dimethylamino)phenyl]-2-[4-(morpholin-4-yl)-6-oxo-1,6-dihydropyrimidin-2-yl]acetamide] yielded a concentration for half-maximal inhibition (IC50) of 145 nM. The result for `O=C(Cc1nc(N2CCOCC2)cc(=O)[nH]1)Nc1ccc(F)cc1F` [Example 5, N-(2,4-difluorophenyl)-2-[4-(morpholin-4-yl)-6-oxo-1,6-dihydropyrimidin-2-yl]acetamide] reads 51 nM; that for `O=C(Cc1nc(N2CCOCC2)cc(=O)[nH]1)Nc1ccsc1` [Example 7, 2-[4-(morpholin-4-yl)-6-oxo-1,6-dihydropyrimidin-2-yl]-N-(thiophen-3-yl)acetamide], 23 nM. With `CC(C)(C)c1cccc(NC(=O)Cc2nc(N3CCOCC3)cc(=O)[nH]2)c1` [Example 19, N-[3-(2-methylpropan-2-yl)phenyl]-2-[4-(morpholin-4-yl)-6-oxo-1,6-dihydropyrimidin-2-yl]acetamide], half-maximal inhibition (IC50) was put at 42 nM.

`N#Cc1cc(NC(=O)Cc2nc(N3CCOCC3)cc(=O)[nH]2)ccc1F` [Example 24, N-(3-cyano-4-fluorophenyl)-2-[4-(morpholin-4-yl)-6-oxo-1,6-dihydropyrimidin-2-yl]acetamide] had an IC50 of 247 nM. The same measure for `O=C(Cc1nc(N2CCOCC2)cc(=O)[nH]1)Nc1ccc(F)cn1` [Example 27, N-(5-fluoropyridin-2-yl)-2-[4-(morpholin-4-yl)-6-oxo-1,6-dihydropyrimidin-2-yl]acetamide]: 71 nM; for `O=C(Cc1nc(N2CCOCC2)cc(=O)[nH]1)Nc1cccnc1` [Example 30, 2-[4-(morpholin-4-yl)-6-oxo-1,6-dihydropyrimidin-2-yl]-N-(pyridin-3-yl)acetamide]: 1030 nM. In turn, `Cc1cc(F)ccc1NC(=O)Cc1nc(N2CCOCC2)cc(=O)[nH]1` [Example 31, N-(4-fluoro-2-methylphenyl)-2-[4-(morpholin-4-yl)-6-oxo-1,6-dihydropyrimidin-2-yl]acetamide] showed a concentration for half-maximal inhibition (IC50) of 58 nM. This IC50 is about 18-fold lower than that of the compound before. The same measure for `O=C(Cc1nc(N2CCOCC2)cc(=O)[nH]1)Nc1cccc(OC2CCCC2)c1` [Example 49, N-[3-(cyclopentyloxy)phenyl]-2-[4-(morpholin-4-yl)-6-oxo-1,6-dihydropyrimidin-2-yl]acetamide]: 146 nM. `O=C(Cc1nc(N2CCOCC2)cc(=O)[nH]1)Nc1ccc(F)c(F)c1F` [Example 53, 2-[4-(morpholin-4-yl)-6-oxo-1,6-dihydropyrimidin-2-yl]-N-(2,3,4-trifluorophenyl)acetamide] had an IC50 of 66 nM. This IC50 is about 2.2-fold lower than that of the compound before. For `O=C(Cc1nc(N2CCOCC2)cc(=O)[nH]1)Nc1cc(F)c(F)cc1F` [Example 60, 2-[4-(morpholin-4-yl)-6-oxo-1,6-dihydropyrimidin-2-yl]-N-(2,4,5-trifluorophenyl)acetamide], the concentration for half-maximal inhibition (IC50) was found to be 290 nM.

In the case of `O=C(Cc1nc(N2CCOCC2)cc(=O)[nH]1)Nc1cc(Cl)c(F)c(Cl)c1` [Example 61, N-(3,5-dichloro-4-fluorophenyl)-2-[4-(morpholin-4-yl)-6-oxo-1,6-dihydropyrimidin-2-yl]acetamide], it took 77 nM to reach half-maximal inhibition (IC50). In the case of `O=C(Cc1nc(N2CCOCC2)cc(=O)[nH]1)Nc1ccc(F)c(C(=O)O)c1` [Example 64, 2-fluoro-5-(([4-(morpholin-4-yl)-6-oxo-1,6-dihydropyrimidin-2-yl]acetyl)amino)benzoic acid], the IC50 stood at 10000 nM. In the case of `O=C(Cc1nc(N2CCOCC2)cc(=O)[nH]1)Nc1ccc(F)cc1Br` [Example 66, N-(2-bromo-4-fluorophenyl)-2-[4-(morpholin-4-yl)-6-oxo-1,6-dihydropyrimidin-2-yl]acetamide], the IC50 amounted to 131 nM. This IC50 lies about 76-fold lower than the previous one. The same measure for `O=C(Cc1nc(N2CCOCC2)cc(=O)[nH]1)Nc1ccc(F)c(I)c1` [Example 74, N-(4-fluoro-3-iodophenyl)-2-[4-(morpholin-4-yl)-6-oxo-1,6-dihydropyrimidin-2-yl]acetamide]: 10 nM; for `O=C(Cc1nc(N2CCOCC2)cc(=O)[nH]1)Nc1ccc(F)c(C(F)F)c1` [Example 76]: 77 nM; for `O=C(Nc1ccc(F)cc1)C(F)(F)c1nc(N2CCOCC2)cc(=O)[nH]1` [Example 77, 2,2-difluoro-N-(4-fluorophenyl)-2-[4-(morpholin-4-yl)-6-oxo-1,6-dihydropyrimidin-2-yl]acetamide]: 698 nM.

As for `Cn1c(CC(=O)Nc2ccc(F)c(F)c2)nc(N2CCOCC2)cc1=O` [Example 78, N-(3,4-difluorophenyl)-2-[1-methyl-4-(morpholin-4-yl)-6-oxo-1,6-dihydropyrimidin-2-yl]acetamide], half-maximal inhibition (IC50) was put at 129 nM. The result for `Cn1c(CC(=O)N2CCc3ccccc32)nc(N2CCOCC2)cc1=O` [Example 79, 2-[2-(2,3-dihydro-1 H-indol-1-yl)-2-oxoethyl]-3-methyl-6-(morpholin-4-yl)pyrimidin-4(3 H)-one] reads 20 nM.

In turn, `Cn1c(CC(=O)Nc2ccc(F)c(Br)c2)nc(N2CCOCC2)cc1=O` [Example 80, N-(3-bromo-4-fluorophenyl)-2-[1-methyl-4-(morpholin-4-yl)-6-oxo-1,6-dihydropyrimidin-2-yl]acetamide] displayed an IC50 of 94 nM.

As to `Cn1c(CC(=O)Nc2ccc(F)c(CO)c2)nc(N2CCOCC2)cc1=O` [Example 81, N-[4-fluoro-3-(hydroxymethyl)phenyl]-2-[1-methyl-4-(morpholin-4-yl)-6-oxo-1,6-dihydropyrimidin-2-yl]acetamide], the midpoint of inhibition, the IC50, lay at 1940 nM. `COc1cc(NC(=O)Cc2nc(N3CCOCC3)cc(=O)n2C)ccc1F` [Example 83, N-(4-fluoro-3-methoxyphenyl)-2-[1-methyl-4-(morpholin-4-yl)-6-oxo-1,6-dihydropyrimidin-2-yl]acetamide]: the IC50 turned out to be 115 nM. This IC50 lies about 17-fold lower than the previous one. The result for `O=C(Cc1nc(N2CCOCC2)cc(=O)[nH]1)Nc1cccc2occc12` [Example 84, N-(1-benzofur-4-yl)-2-[4-(morpholin-4-yl)-6-oxo-1,6-dihydropyrimidin-2-yl]acetamide] reads 17 nM; that for `Cn1c(CC(=O)Nc2ccccc2)nc(N2CCOCC2)cc1=O` [Example 85, 2-[1-methyl-4-(morpholin-4-yl)-6-oxo-1,6-dihydropyrimidin-2-yl]-N-phenylacetamide], 340 nM.

`O=C(Cc1nc(N2CCOCC2)cc(=O)[nH]1)Nc1cccc(F)c1O` [Example 87, N-(3-fluoro-2-hydroxyphenyl)-2-[4-(morpholin-4-yl)-6-oxo-1,6-dihydropyrimidin-2-yl]acetamide] gave an IC50 of 75 nM. In turn, `O=C(Cc1nc(N2CCOCC2)cc(=O)[nH]1)N1CCc2c(Cl)cccc21` [Example 89, 2-[2-(4-chloro-2,3-dihydro-1 H-indol-1-yl)-2-oxoethyl]-6-(morpholin-4-yl)pyrimidin-4(3 H)-one] came in with an IC50 of 3 nM. `C#Cc1cc(NC(=O)Cc2nc(N3CCOCC3)cc(=O)[nH]2)ccc1F` [Example 90, N-(3-ethynyl-4-fluorophenyl)-2-[4-(morpholin-4-yl)-6-oxo-1,6-dihydropyrimidin-2-yl]acetamide] registered a half-inhibitory concentration (IC50) of 14 nM. The same measure for `O=C(Cc1nc(N2CCOCC2)cc(=O)[nH]1)N1CCc2c(O)cccc21` [Example 91, 2-[2-(4-hydroxy-2,3-dihydro-1H-indol-1-yl)-2-oxoethyl]-6-(morpholin-4-yl)pyrimidin-4(3H)-one]: 71 nM. The same measure for `O=C(Cc1nc(N2CCOCC2)cc(=O)[nH]1)N1CCc2c(F)cc(F)cc21` [Example 92, 2-[2-(4,6-difluoro-2,3-dihydro-1H-indol-1-yl)-2-oxoethyl]-6-(morpholin-4-yl)pyrimidin-4(3H)-one]: 57 nM; for `Cn1c(CC(=O)Nc2ccc(F)c(I)c2)nc(N2CCOCC2)cc1=O` [Example 93, N-(3-iodo-4-fluorophenyl)-2-[1-methyl-4-(morpholin-4-yl)-6-oxo-1,6-dihydropyrimidin-2-yl]acetamide]: 63 nM; for `O=C(Cc1nc(N2CCOCC2)cc(=O)[nH]1)N1CCc2c1ccc(F)c2F` [Example 94, 2-[2-(4,5-difluoro-2,3-dihydro-1H-indol-1-yl)-2-oxoethyl]-6-(morpholin-4-yl)pyrimidin-4(3H)-one]: 11 nM.

Regarding `O=C(Cc1nc(N2CCOCC2)cc(=O)[nH]1)N1CCc2ccc(F)cc21` [Example 95, 2-[2-(6-fluoro-2,3-dihydro-′1H-indol-1-yl)-2-oxoethyl]-6-(morpholin-4-yl)pyrimidin-4(3H)-one], the IC50 was 35 nM.
